Test results published in PubChem BioAssay AID1845194 (Molecular Pharmacology Branch, DTP, NCI, 2023).

System: 287954-098-R-J1 tumor spheroid viability
Assay: Anticancer human tumor 287954-098-R-J1 patient-derived Ewing sarcoma cell line growth inhibition
Conditions: spheroids with HUVEC and MSC; for IC50: curve of first compound; for viability, T/C: stronger effect = lower value
Outline: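 Complex spheroids of malignant cells with endothelial cells and mesenchymal stem cells; agents alone or combined, from near clinical Cmax (or 10 microM if unknown) down in half-log steps, 0.25% DMSO final.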
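Also: spheroids exposed to compound for 7 days before viability readout.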
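For viability, T/C in this document: luminescent signal taken as surrogate of viable cell content; 100% = DMSO vehicle control viability and lower means growth inhibition.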

**Q.** What does the source list for `CC(C)n1c(=O)n(C)c2cnc3cc(F)c(-c4ccc(OCCCN5CCCCC5)nc4)cc3c21` + CC[C@@]1(O)C(=O)OCc2c1cc1n(c2=O)Cc2cc3c(CN(C)C)c(O)ccc3nc2-1?
**A.** IC50 (second compound 0.003 µM): < 31.6 nM; IC50 (second compound 0.00949 µM): < 31.6 nM; IC50 (second compound 0.03 µM): < 31.6 nM; IC50 (second compound 0.0949 µM): < 31.6 nM; IC50 (second compound 0.3 µM): < 31.6 nM; viability, T/C (second compound 0.003 µM, first compound 0.0316 µM): 24.4%; viability, T/C (second compound 0.003 µM, first compound 0.1 µM): 25.2%; viability, T/C (second compound 0.003 µM, first compound 0.316 µM): 14.1%; viability, T/C (second compound 0.003 µM, first compound 1 µM): 18%; viability, T/C (second compound 0.003 µM, first compound 3.16 µM): 18.6%; viability, T/C (second compound 0.003 µM, first compound 10 µM): 0.6%; viability, T/C (second compound 0.00949 µM, first compound 0.0316 µM): 1.98%; viability, T/C (second compound 0.00949 µM, first compound 0.1 µM): 1.84%; viability, T/C (second compound 0.00949 µM, first compound 0.316 µM): 1.79%; viability, T/C (second compound 0.00949 µM, first compound 1 µM): 1.85%; viability, T/C (second compound 0.00949 µM, first compound 3.16 µM): 1.45%; viability, T/C (second compound 0.00949 µM, first compound 10 µM): 0.25%; viability, T/C (second compound 0.03 µM, first compound 0.0316 µM): 1.57%; viability, T/C (second compound 0.03 µM, first compound 0.1 µM): 1.36%; viability, T/C (second compound 0.03 µM, first compound 0.316 µM): 1.48%; viability, T/C (second compound 0.03 µM, first compound 1 µM): 1.56%; viability, T/C (second compound 0.03 µM, first compound 3.16 µM): 1.35%; viability, T/C (second compound 0.03 µM, first compound 10 µM): 0.27%; viability, T/C (second compound 0.0949 µM, first compound 0.0316 µM): 1.39%; viability, T/C (second compound 0.0949 µM, first compound 0.1 µM): 1.29%; viability, T/C (second compound 0.0949 µM, first compound 0.316 µM): 1.62%; viability, T/C (second compound 0.0949 µM, first compound 1 µM): 1.24%; viability, T/C (second compound 0.0949 µM, first compound 3.16 µM): 1.02%; viability, T/C (second compound 0.0949 µM, first compound 10 µM): 0.43%; viability, T/C (second compound 0.3 µM, first compound 0.0316 µM): 1.39%; viability, T/C (second compound 0.3 µM, first compound 0.1 µM): 1.68%; viability, T/C (second compound 0.3 µM, first compound 0.316 µM): 1.34%; viability, T/C (second compound 0.3 µM, first compound 1 µM): 1.48%; viability, T/C (second compound 0.3 µM, first compound 3.16 µM): 1.35%; viability, T/C (second compound 0.3 µM, first compound 10 µM): 0.58%
